Data on 26 compounds can be found in patent US20250074919A1, “Heteroaryl compounds as inhibitors of irak4, compositions and applications thereof” (Accro Bioscience (HK) Limited, priority 2021, published 2025).

Where only a bound is given, the exact number is not on record here.

Chain of IRAK4 (Q9NWZ3 whole entry): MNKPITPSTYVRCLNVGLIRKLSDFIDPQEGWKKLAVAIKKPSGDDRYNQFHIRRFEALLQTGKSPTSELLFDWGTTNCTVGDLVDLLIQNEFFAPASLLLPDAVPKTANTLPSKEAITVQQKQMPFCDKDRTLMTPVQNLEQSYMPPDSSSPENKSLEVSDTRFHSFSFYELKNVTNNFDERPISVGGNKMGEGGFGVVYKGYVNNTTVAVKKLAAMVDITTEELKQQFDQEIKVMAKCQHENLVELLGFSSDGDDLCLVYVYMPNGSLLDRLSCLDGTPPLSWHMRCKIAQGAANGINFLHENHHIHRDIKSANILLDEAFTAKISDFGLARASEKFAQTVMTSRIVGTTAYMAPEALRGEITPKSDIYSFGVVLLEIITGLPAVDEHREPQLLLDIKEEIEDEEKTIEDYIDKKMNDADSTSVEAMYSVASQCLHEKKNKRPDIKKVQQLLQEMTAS

For the first experiment, the target named is IRAK4 (Homo sapiens (Human), UniProt Q9NWZ3). The experiment can be described thus: Screening the compounds against IRAK4 with ATP (Caliper, FAM-labeled peptide). The experiment is classed as biochemical. The note with it: IRAK4 kinase inhibition relative to CA4948. Here is the method:
Prepare Ix kinase base buffer and stop buffer for testing kinases: (1) base buffer: 50 mM HEPES (pH 7.5), 0.0015% Brij-35; (2) stop buffer: 100 mM HEPES (pH 7.5), 0.015% Brij-35, 0.2% Coating Reagent #3, 50 mM EDTA. Then prepare compounds for testing: Dilute the compound to 50× of the final desired highest inhibitor concentration in reaction by 100% DMSO. Transfer 100 μL of this compound dilution to a well in a 96-well plate (source plate).
Serially dilute the compounds by 3-fold for a total of 10 points. Transfer 10 μL of the compound from the source plate to a new 96-well plate (intermediate plate) and add 90 μL of Ix kinase buffer. Shake the mixture on the intermediate plate for 10 min. Transfer 5 μL of each well from the 96-well intermediate plate to a 384-well plate in duplicates. Add 10 μL of 2.5× enzyme solution to each well of the 384-well assay plate and incubate at room temperature for 10 min. Add 10 μL, of 2.5×FAM-labeled peptide and ATP solution and incubate at 28° C. for a period of time. Finally stop the reaction by adding 30 μL of stop buffer and collect data on Caliper to obtain the IC50.
`Cn1cc(-c2cccc(NC(=O)c3cc4c(nc3OC3CC(C)(O)C3)OC(C)(C)C4)n2)cn1` (stereo not drawn) [Compound B35, 6-(3-Hydroxy-3-methylcyclobutoxy)-2,2-dimethyl-N-(6-(1-methyl-1H-pyrazol-4-yl)pyridin-2-yl)-2,3-dihydrofuro[2,3-b]pyridine-5-carboxamide]: the “activity, times better than that of the positive control compound CA4948” value was “more than 10 times”. As for `Cn1cc(-c2cccc(NC(=O)c3cc4oc(N5CCOCC5)nc4nc3N3CCC(C)(O)CC3)n2)cn1` [Compound A25, 5-(4-Hydroxy-4-methylpiperidin-1-yl)-N-(6-(1-methyl-1H-pyrazol-4-yl)pyridin-2-yl)-2-morpholinooxazolo[4,5-b]pyridine-6-carboxamide], the “activity, times better than that of the positive control compound CA4948” value is recorded as “more than 10 times”. Still for that read-out and setting: then `Cn1cc(-c2cccc(NC(=O)c3cc4oc(N5CCOCC5)nc4nc3N3CCC4(CCO4)CC3)n2)cn1` [Compound A26, N-(6-(1-Methyl-1H-pyrazol-4-yl)pyridin-2-yl)-2-morpholino-5-(1-oxa-7-azaspiro[3.5]nonan-7-yl)oxazolo[4,5-b]pyridine-6-carboxamide], with “more than 25 times”. The same measure, in the same setting: then `Cn1cc(-c2cccc(NC(=O)c3cc4oc(N5CCOCC5)nc4nc3N3CCC(F)(F)CC3)n2)cn1` [Compound A11, 5-(4,4-Difluoropiperidin-1-yl)-N-(6-(1-methyl-1H-pyrazol-4-yl)pyridin-2-yl)-2-morpholinooxazolo[4,5-b]pyridine-6-carboxamide], with “more than 5 times”.

Still in this experiment, the particulars now being: read-out: IC50 (nM) (10 μM ATP).
Regarding `Cn1cc(-c2cccc(NC(=O)c3cc4oc(N5CCOCC5)nc4nc3N3CCC4(CCO4)CC3)n2)cn1` [Compound A26, N-(6-(1-Methyl-1H-pyrazol-4-yl)pyridin-2-yl)-2-morpholino-5-(1-oxa-7-azaspiro[3.5]nonan-7-yl)oxazolo[4,5-b]pyridine-6-carboxamide], the IC50 (commonly the concentration at which inhibition is half-maximal) stood at 4.2 nM.

Staying with this experiment, now noted: read-out: IC50 (nM) (10 μM ATP); IRAK4 kinase, 10 μM ATP.
Turning to `Cn1cc(-c2cccc(NC(=O)c3cc4c(nc3N3CCC(C)(O)CC3)OC(C)(C)C4)n2)cn1` [Compound B7, 6-(4-Hydroxy-4-methylpiperidin-1-yl)-2,2-dimethyl-N-(6-(1-methyl-1H-pyrazol-4-yl)pyridin-2-yl)-2,3-dihydrofuro[2,3-b]pyridine-5-carboxamide], the IC50 was 11 nM.

Regarding `Cn1cc(-c2cccc(NC(=O)c3cc4c(nc3OC3CC(C)(O)C3)OC(C)(C)C4)n2)cn1` (stereo not drawn) [Compound B35, 6-(3-Hydroxy-3-methylcyclobutoxy)-2,2-dimethyl-N-(6-(1-methyl-1H-pyrazol-4-yl)pyridin-2-yl)-2,3-dihydrofuro[2,3-b]pyridine-5-carboxamide], the IC50 is 6.8 nM. The same measure, in the same setting: then `Cn1cc(-c2cccc(NC(=O)c3cc4c(nc3N3CCNC5(CC5)C3)OC(C)(C)C4)n2)cn1` [Compound B8, 2,2-Dimethyl-N-(6-(1-methyl-1H-pyrazol-4-yl)pyridin-2-yl)-6-(4,7-diazaspiro[2.5]octan-7-yl)-2,3-dihydrofuro[2,3-b]pyridine-5-carboxamide], with 224 nM. The same measure, in the same setting: with `CN(C)C1CCN(c2nc3nc(N4CCOCC4)oc3cc2C(=O)Nc2cccc(-c3cnn(C)c3)n2)CC1` [Compound A23, 5-(4-(Dimethylamino)piperidin-1-yl)-N-(6-(1-methyl-1H-pyrazol-4-yl)pyridin-2-yl)-2-morpholinooxazolo[4,5-b]pyridine-6-carboxamide] the figure was 425 nM; with `Cn1cc(-c2cccc(NC(=O)c3cc4oc(N5CCOCC5)nc4nc3N3CCC(C)(O)CC3)n2)cn1` [Compound A25, 5-(4-Hydroxy-4-methylpiperidin-1-yl)-N-(6-(1-methyl-1H-pyrazol-4-yl)pyridin-2-yl)-2-morpholinooxazolo[4,5-b]pyridine-6-carboxamide], 8.6 nM.

On to `Cn1cc(-c2cccc(NC(=O)c3cc4c(nc3OC3CCC3)OC(C)(C)C4)n2)cn1` [Compound B14, 6-Cyclobutoxy-2,2-dimethyl-N-(6-(1-methyl-1H-pyrazol-4-yl)pyridin-2-yl)-2,3-dihydrofuro[2,3-b]pyridine-5-carboxamide], for which the IC50 was 6.1 nM. Same read-out and setting: with `CC1(C)Cc2cc(C(=O)Nc3cccn([C@H]4C[C@H]4F)c3=O)c(N3CCC(O)CC3)nc2O1` [Compound B9, N-(1-((1S,2R)-2-Fluorocyclopropyl)-2-oxo-1,2-dihydropyridin-3-yl)-6-(4-hydroxypiperidin-1-yl)-2,2-dimethyl-2,3-dihydrofuro[2,3-b]pyridine-5-carboxamide] the figure was 69 nM; with `COc1cccc(NC(=O)c2cc3oc(N4CCOCC4)nc3nc2N2CCC(O)CC2)n1` [Compound A43, 5-(4-Hydroxypiperidin-1-yl)-N-(6-methoxypyridin-2-yl)-2-morpholinooxazolo[4,5-b]pyridine-6-carboxamide], 137 nM.

As for `COC1CCN(c2nc3nc(N4CCN(C)CC4)oc3cc2C(=O)Nc2cccc(-c3cnn(C)c3)n2)CC1` [Compound A52, 5-(4-Methoxypiperidin-1-yl)-N-(6-(1-methyl-1H-pyrazol-4-yl)pyridin-2-yl)-2-(4-methylpiperazin-1-yl)oxazolo[4,5-b]pyridine-6-carboxamide], the IC50 stood at 5.1 nM. Same read-out and setting: with `Cn1cc(-c2cccc(NC(=O)c3cc4oc(N5CCOCC5)nc4nc3N3CCC(F)(F)CC3)n2)cn1` [Compound A11, 5-(4,4-Difluoropiperidin-1-yl)-N-(6-(1-methyl-1H-pyrazol-4-yl)pyridin-2-yl)-2-morpholinooxazolo[4,5-b]pyridine-6-carboxamide] the figure was 22 nM. Turning to `Cn1cc(-c2cccc(NC(=O)c3cc4c(nc3OC3CNC3)OC(C)(C)C4)n2)cn1` [Compound B30, 6-(Azetidin-3-yloxy)-2,2-dimethyl-N-(6-(1-methyl-1H-pyrazol-4-yl)pyridin-2-yl)-2,3-dihydrofuro[2,3-b]pyridine-5-carboxamide], the IC50 came to 170 nM. In the case of `Cn1cc(-c2cccc(NC(=O)c3cc4c(nc3OC3CCCC3)OC(C)(C)C4)n2)cn1` [Compound B15, 6-(Cyclopentyloxy)-2,2-dimethyl-N-(6-(1-methyl-1H-pyrazol-4-yl)pyridin-2-yl)-2,3-dihydrofuro[2,3-b]pyridine-5-carboxamide], the IC50 came out at 5.6 nM.

`Cn1cc(-c2cccc(NC(=O)c3cc4oc(N5CCOCC5)nc4nc3N3CCN4CCC[C@@H]4C3)n2)cn1` [Compound A21, (R)-5-(Hexahydropyrrolo[1,2-a]pyrazin-2(1H)-yl)-N-(6-(1-methyl-1H-pyrazol-4-yl)pyridin-2-yl)-2-morpholinooxazolo[4,5-b]pyridine-6-carboxamide]: the IC50 was found to be 26 nM.

Take `Cn1cc(-c2cccc(NC(=O)c3cc4c(nc3OC3CNC(=O)OC3)OC(C)(C)C4)n2)cn1` (stereo not drawn) [Compound B28, 2,2-Dimethyl-N-(6-(1-methyl-1H-pyrazol-4-yl)pyridin-2-yl)-6-((2-oxo-1,3-oxazinan-5-yl)oxy)-2,3-dihydrofuro[2,3-b]pyridine-5-carboxamide]: the IC50 came to 248 nM.

Consider `Cn1cc(-c2cccc(NC(=O)c3cc4oc(N5CCOCC5)nc4nc3N3CCNCC3)n2)cn1` [Compound A13, N-(6-(1-Methyl-1H-pyrazol-4-yl)pyridin-2-yl)-2-morpholino-5-(piperazin-1-yl)oxazolo[4,5-b]pyridine-6-carboxamide], for which the IC50 amounted to 304 nM. The same measure, in the same setting: then `Cn1cc(-c2cccc(NC(=O)c3cc4oc(N5CCOCC5)nc4nc3N3CC(O)(C4CC4)C3)n2)cn1` [Compound A10, 5-(3-Cyclopropyl-3-hydroxyazetidin-1-yl)-N-(6-(1-methyl-1H-pyrazol-4-yl)pyridin-2-yl)-2-morpholinooxazolo[4,5-b]pyridine-6-carboxamide], with 122 nM; and `Cn1cc(-c2cccc(NC(=O)c3cc4c(nc3N3CCN(CCO)CC3)OC(C)(C)C4)n2)cn1` [Compound B3, 6-(4-(2-Hydroxyethyl)piperazin-1-yl)-2,2-dimethyl-N-(6-(1-methyl-1H-pyrazol-4-yl)pyridin-2-yl)-2,3-dihydrofuro[2,3-b]pyridine-5-carboxamide], with 31 nM. With `Cn1cc(-c2cccc(NC(=O)c3cc4c(nc3OC3CCNC3)OC(C)(C)C4)n2)cn1` (stereo not drawn) [Compound B22, 2,2-Dimethyl-N-(6-(1-methyl-1H-pyrazol-4-yl)pyridin-2-yl)-6-(pyrrolidin-3-yloxy)-2,3-dihydrofuro[2,3-b]pyridine-5-carboxamide], the IC50 is 354 nM. Still for that read-out and setting: then `Cn1cc(-c2cccc(NC(=O)c3cc4oc(N5CCOCC5)nc4nc3N3CC(C)(O)C3)n2)cn1` [Compound A14, 5-(3-Hydroxy-3-methylazetidin-1-yl)-N-(6-(1-methyl-1H-pyrazol-4-yl)pyridin-2-yl)-2-morpholinooxazolo[4,5-b]pyridine-6-carboxamide], with 164 nM. On to `Cc1cc(-c2nc(NC(=O)c3cc4oc(N5CCOCC5)nc4nc3N3CC[C@@H](O)C3)co2)ccn1` [Compound A49, (R)-5-(3-Hydroxypyrrolidin-1-yl)-N-(2-(2-methylpyridin-4-yl)oxazol-4-yl)-2-morpholinooxazolo[4,5-b]pyridine-6-carboxamide], for which the IC50 is greater than 6000 nM. `CN1CCN(c2nc3nc(N4CCC(C)(O)CC4)c(C(=O)Nc4cccc(-c5cnn(C)c5)n4)cc3o2)CC1` [Compound A59, 5-(4-Hydroxy-4-methylpiperidin-1-yl)-N-(6-(1-methyl-1H-pyrazol-4-yl)pyridin-2-yl)-2-(4-methylpiperazin-1-yl)oxazolo[4,5-b]pyridine-6-carboxamide]: the IC50 worked out at 6.6 nM. On the same count and under the same terms, then `Cn1cc(-c2cccc(NC(=O)c3cc4oc(N5CCOCC5)nc4nc3N3CC4(CCOC4)C3)n2)cn1` [Compound A18, N-(6-(1-Methyl-1H-pyrazol-4-yl)pyridin-2-yl)-2-morpholino-5-(6-oxa-2-azaspiro[3.4]octan-2-yl)oxazolo[4,5-b]pyridine-6-carboxamide], with 221 nM. As for `COc1ncccc1NC(=O)c1cc2oc(N3CCOCC3)nc2nc1N1CCC(O)CC1` [Compound A45, 5-(4-Hydroxypiperidin-1-yl)-N-(2-methoxypyridin-3-yl)-2-morpholinooxazolo[4,5-b]pyridine-6-carboxamide], the IC50 turned out to be 131 nM. For `Cn1cc(-c2cccc(NC(=O)c3cc4c(nc3OCC3CC3)OC(C)(C)C4)n2)cn1` [Compound B24, 6-(Cyclopropylmethoxy)-2,2-dimethyl-N-(6-(1-methyl-1H-pyrazol-4-yl)pyridin-2-yl)-2,3-dihydrofuro[2,3-b]pyridine-5-carboxamide], the IC50 amounted to 11 nM.

As to `Cn1cc(-c2cccc(NC(=O)c3cc4oc(N5CCOCC5)nc4nc3N3CCCC(O)C3)n2)cn1` (stereo not drawn) [Compound A16, 5-(3-Hydroxypiperidin-1-yl)-N-(6-(1-methyl-1H-pyrazol-4-yl)pyridin-2-yl)-2-morpholinooxazolo[4,5-b]pyridine-6-carboxamide], the IC50 came out at 31 nM.
